Data set [1] has as its target T1, Phosphatidylinositol 4,5-bisphosphate 3-kinase catalytic subunit delta isoform (Homo sapiens) (UniProt O00329).
T1 sequence (whole entry): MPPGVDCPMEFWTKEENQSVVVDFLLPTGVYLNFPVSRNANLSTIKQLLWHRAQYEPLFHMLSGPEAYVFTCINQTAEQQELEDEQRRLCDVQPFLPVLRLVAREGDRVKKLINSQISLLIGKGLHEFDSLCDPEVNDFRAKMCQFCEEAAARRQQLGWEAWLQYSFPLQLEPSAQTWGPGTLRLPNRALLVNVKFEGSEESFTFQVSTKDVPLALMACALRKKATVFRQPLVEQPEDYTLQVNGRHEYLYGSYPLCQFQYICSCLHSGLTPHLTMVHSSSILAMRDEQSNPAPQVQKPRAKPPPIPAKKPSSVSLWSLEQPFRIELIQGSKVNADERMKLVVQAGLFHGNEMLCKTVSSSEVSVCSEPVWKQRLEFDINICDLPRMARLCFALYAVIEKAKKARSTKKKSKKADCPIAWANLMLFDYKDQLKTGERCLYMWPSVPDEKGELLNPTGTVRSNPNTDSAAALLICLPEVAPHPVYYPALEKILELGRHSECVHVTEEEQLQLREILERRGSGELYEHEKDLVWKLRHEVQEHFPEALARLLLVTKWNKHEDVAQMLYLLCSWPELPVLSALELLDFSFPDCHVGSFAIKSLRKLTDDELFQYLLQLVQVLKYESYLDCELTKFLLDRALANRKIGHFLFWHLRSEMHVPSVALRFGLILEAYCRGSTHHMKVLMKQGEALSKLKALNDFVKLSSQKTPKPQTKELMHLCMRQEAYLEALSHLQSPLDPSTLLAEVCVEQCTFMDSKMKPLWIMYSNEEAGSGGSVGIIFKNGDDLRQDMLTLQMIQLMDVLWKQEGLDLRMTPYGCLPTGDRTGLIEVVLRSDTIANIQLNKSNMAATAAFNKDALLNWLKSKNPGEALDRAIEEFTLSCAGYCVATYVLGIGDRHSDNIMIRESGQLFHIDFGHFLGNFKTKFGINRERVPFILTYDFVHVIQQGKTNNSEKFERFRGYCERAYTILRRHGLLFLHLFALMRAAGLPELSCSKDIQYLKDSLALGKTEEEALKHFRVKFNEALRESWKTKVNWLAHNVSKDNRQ
As to the kind of experiment: Antagonist activity at PI3Kdelta (unknown origin) assessed as inhibition rate at 20 nM using PIP2 as substrate in presence of ATP incubated for 30 to 60 mins by ADP-glo based luminescence assay relative to control. Conditions: time 30-60 min. A general note: ADP-Glo first removes unused ATP, then detects ADP through luciferase.

Data set [2] addresses Phosphatidylinositol 4,5-bisphosphate 3-kinase catalytic subunit gamma isoform (Homo sapiens, UniProt P48736). The data set can be described thus: Antagonist activity at PI3Kgamma (unknown origin) assessed as inhibition rate at 20 nM using PIP2 as substrate in presence of ATP incubated for 30 to 60 mins by ADP-glo based luminescence assay relative to control. Conditions: time 30-60 min.

A further data set relates to THP-1. The data set can be described thus: Cytotoxicity against human THP-1 cells assessed as reduction in cell viability incubated for 24 hrs by CCK-8 assay. In kind it is functional, cell-based. Conditions: THP-1, 24 h.
The next data set concerns B16-F10. The data set can be described thus: Cytotoxicity against mouse B16-F10 cells assessed as reduction in cell viability incubated for 24 hrs by CCK-8 assay. In kind it is functional, cell-based. Conditions: B16-F10, 24 h. A general note: Formazan colour is commonly taken as a measure of viable cells.
The subject of a further data set is Huh-7. The data set can be described thus: Cytotoxicity against human Huh-7 cells assessed as reduction in cell viability incubated for 24 hrs by CCK-8 assay. In kind it is functional, cell-based. Conditions: Huh-7, 24 h.
The subject of a further data set is MDA-MB-231. As to the kind of experiment: Cytotoxicity against human MDA-MB-231 cells assessed as reduction in cell viability incubated for 24 hrs by CCK-8 assay. The class given is functional, cell-based. To be noted: MDA-MB-231, 24 h.
A further data set has as its system T47D. As to the kind of experiment: Cytotoxicity against human T47D cells assessed as reduction in cell viability incubated for 24 hrs by CCK-8 assay. The class given is functional, cell-based.
In another data set the test system is HepG2. The data set can be described thus: Cytotoxicity against human HepG2 cells assessed as reduction in cell viability incubated for 24 hrs by CCK-8 assay. To be noted: HepG2, 24 h. In kind it is functional, cell-based.
The next data set deals with A549. The data set can be described thus: Cytotoxicity against human A549 cells assessed as reduction in cell viability incubated for 24 hrs by CCK-8 assay. In kind it is functional, cell-based. To be noted: A549, 24 h.
Another data set relates to Jurkat. The data set can be described thus: Cytotoxicity against human Jurkat cells assessed as reduction in cell viability incubated for 24 hrs by CCK-8 assay. The class given is functional, cell-based.
The test system of the next data set is 4T1. As to the kind of experiment: Cytotoxicity against mouse 4T1 cells assessed as reduction in cell viability incubated for 24 hrs by CCK-8 assay. The class given is functional, cell-based. To be noted: 4T1, 24 h.
A further data set deals with MCF7. As to the kind of experiment: Cytotoxicity against human MCF7 cells assessed as reduction in cell viability incubated for 24 hrs by CCK-8 assay. In kind it is functional, cell-based. To be noted: MCF7, 24 h.
A further data set relates to RAW264.7. The data set can be described thus: Cytotoxicity against mouse RAW264.7 cells assessed as reduction in cell viability incubated for 24 hrs by CCK-8 assay. The class given is functional, cell-based. Conditions: RAW264.7, 24 h.
The nature of data set [3]: Cytotoxicity against mouse L929 cells assessed as reduction in cell viability incubated for 24 hrs by CCK-8 assay. The class given is toxicity, cell-based.

For 29 compounds, inhibition and IC50 results are on record in ChEMBL document CHEMBL5252648, “Design, synthesis and bioactivity evaluation of a series of quinazolinone derivatives as potent PI3Kγ antagonist” (Bioorg Med Chem, 2023).

Where only a bound is given, the exact number is not on record here.

Sequence of Phosphatidylinositol 4,5-bisphosphate 3-kinase catalytic subunit gamma isoform (P48736 whole entry, looked up, canonical isoform): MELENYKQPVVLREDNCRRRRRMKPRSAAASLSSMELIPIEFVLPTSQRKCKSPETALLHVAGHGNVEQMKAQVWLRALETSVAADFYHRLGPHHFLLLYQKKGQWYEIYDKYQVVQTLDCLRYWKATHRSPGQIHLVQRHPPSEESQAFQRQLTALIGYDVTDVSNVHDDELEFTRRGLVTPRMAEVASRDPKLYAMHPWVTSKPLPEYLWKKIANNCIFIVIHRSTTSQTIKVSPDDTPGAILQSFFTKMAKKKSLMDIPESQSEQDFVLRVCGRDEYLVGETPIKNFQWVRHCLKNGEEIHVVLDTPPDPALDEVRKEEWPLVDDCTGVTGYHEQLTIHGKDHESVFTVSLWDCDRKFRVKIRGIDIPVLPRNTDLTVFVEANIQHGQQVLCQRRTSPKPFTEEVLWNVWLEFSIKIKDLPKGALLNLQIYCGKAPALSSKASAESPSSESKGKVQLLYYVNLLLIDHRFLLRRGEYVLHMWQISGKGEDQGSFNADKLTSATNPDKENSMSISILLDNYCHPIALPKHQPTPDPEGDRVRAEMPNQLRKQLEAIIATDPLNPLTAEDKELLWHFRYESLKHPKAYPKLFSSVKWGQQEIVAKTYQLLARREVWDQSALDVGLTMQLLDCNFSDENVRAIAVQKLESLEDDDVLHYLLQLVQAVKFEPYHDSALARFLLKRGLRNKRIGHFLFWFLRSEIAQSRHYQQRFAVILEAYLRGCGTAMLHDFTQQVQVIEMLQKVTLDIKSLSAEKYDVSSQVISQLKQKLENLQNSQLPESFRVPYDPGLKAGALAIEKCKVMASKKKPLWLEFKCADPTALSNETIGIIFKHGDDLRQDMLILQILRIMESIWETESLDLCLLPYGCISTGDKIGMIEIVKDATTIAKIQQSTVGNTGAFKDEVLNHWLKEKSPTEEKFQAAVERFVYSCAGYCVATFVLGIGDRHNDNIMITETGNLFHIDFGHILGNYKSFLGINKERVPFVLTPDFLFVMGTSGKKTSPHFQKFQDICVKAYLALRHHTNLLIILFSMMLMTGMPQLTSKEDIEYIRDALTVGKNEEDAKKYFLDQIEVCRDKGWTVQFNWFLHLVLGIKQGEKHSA

In general, inhibition refers to the drop in the measured response relative to a control, in per cent. In the case of `CC(NC(=O)c1c(N)nn2cccnc12)c1cc2cccc(C#CC3CC3)c2c(=O)n1-c1ccccc1` (stereo not drawn), the results for the inhibition in data set [1] and in data set [2] were 17% and 33%, respectively.
Take `CC(NC(=O)c1c(N)nn2cccnc12)c1cc2cccc(C#CCN)c2c(=O)n1-c1ccccc1` (stereo not drawn): the inhibition in data set [1] turned out to be 25%; in data set [2], 38%.
Consider `CC(Nc1ncnc2[nH]cnc12)c1cc2cccc(C#CC3CC3)c2c(=O)n1-c1ccccc1` (stereo not drawn), for which the figures for the inhibition in data set [1] (filed as antagonist) and in [2] (filed as antagonist) were 44% and 43%, respectively.
In the case of `CCCc1ccc(C#Cc2cccc3cc(C(C)Nc4ncnc5[nH]cnc45)n(-c4ccccc4)c(=O)c23)cc1` (stereo not drawn), the inhibition in data set [1] was 8%; in [2], 13%.
`CC(NC(=O)c1cnn2cccnc12)c1cc2cccc(C#Cc3ccccc3)c2c(=O)n1-c1ccccc1` (stereo not drawn): the figures for the inhibition in data set [1] and in data set [2] were 22% and 24%, respectively.
On to `COCC#Cc1cccc2cc(C(C)Nc3ncnc4[nH]cnc34)n(-c3ccccc3)c(=O)c12` (stereo not drawn), for which the inhibition is 26% in data set [1] and 41% in data set [2] (filed as antagonist).
In the case of `CCCC#Cc1cccc2cc(C(C)NC(=O)c3c(N)nn4cccnc34)n(-c3ccccc3)c(=O)c12` (stereo not drawn), the figures for the inhibition in data set [1] and in data set [2] were 29% and 24%, respectively.
With `CC(NC(=O)c1cccc2c1OCCO2)c1cc2cccc(Cl)c2c(=O)n1-c1ccccc1` (stereo not drawn), the inhibition turned out to be 32% in data set [1] and 9% in data set [2].
As for `CCCc1ccc(C#Cc2cccc3cc(C(C)NC(=O)c4c(N)nn5cccnc45)n(-c4ccccc4)c(=O)c23)cc1` (stereo not drawn), the inhibition in data set [1] came to 27%; in [2], 22%.
As to `CC(NC(=O)c1cncc2ccccc12)c1cc2cccc(Cl)c2c(=O)n1-c1ccccc1` (stereo not drawn), the inhibition in data set [1] came out at 3%; in [2], 2%.
For orientation: IC50 means the midpoint of a concentration-inhibition curve. Consider `C[C@H](Nc1ncnc2nc[nH]c12)c1cc2cccc(Cl)c2c(=O)n1-c1ccccc1` [DUVELISIB], for which the IC50 was 14.9 µM with THP-1; greater than 100 µM in the data set on B16-F10; 6.57 µM with Huh-7; 9.76 µM in the data set with MDA-MB-231; greater than 100 µM with T47D; greater than 100 µM with HepG2. Moreover, the IC50 is greater than 100 µM in the data set with A549; 3.17 µM in the data set with Jurkat; 22.9 µM with 4T1; greater than 100 µM with MCF7; 13.2 µM with RAW264.7. In addition, the inhibition in [1] (filed as antagonist) amounted to 66.7%; in data set [2] it was 37%.
As for `COCC#Cc1cccc2cc(C(C)NC(=O)c3c(N)nn4cccnc34)n(-c3ccccc3)c(=O)c12` (stereo not drawn), the inhibition is 27% in data set [1] and 35% in data set [2].
For the compound `CC(NC(=O)c1cnn2cccnc12)c1cc2cccc(C#Cc3ccc(C(F)(F)F)cc3)c2c(=O)n1-c1ccccc1` (stereo not drawn), the inhibition in [1] (filed as antagonist) is 40%; in data set [2], 27%.
Consider `CC(NC(=O)c1cnn2cccnc12)c1cc2cccc(C#Cc3ccc(N(C)C)cc3)c2c(=O)n1-c1ccccc1` (stereo not drawn), for which the inhibition amounted to 28% in [1] and 22% in data set [2].
On to `COc1ccc(C#Cc2cccc3cc(C(C)NC(=O)c4cnn5cccnc45)n(-c4ccccc4)c(=O)c23)cc1` (stereo not drawn), for which the inhibition in [1] and in [2] was 25% in each case.
Take `CC(NC(=O)c1ccncc1N)c1cc2cccc(Cl)c2c(=O)n1-c1ccccc1` (stereo not drawn): the inhibition came to 24% in [1] and 33% in [2].
For `CC(Nc1ncnc2[nH]cnc12)c1cc2cccc(C#Cc3ccccc3)c2c(=O)n1-c1ccccc1` (stereo not drawn), the inhibition in data set [1] came to 23%; in [2] (filed as antagonist), 51%.
In the case of `CC(NC(=O)c1cnn2cccnc12)c1cc2cccc(Cl)c2c(=O)n1-c1ccccc1` (stereo not drawn), the inhibition in [1] amounted to 13%; in data set [2], 36%.
The matching figures for `CC(Nc1ncnc2c1ncn2C)c1cc2cccc(Cl)c2c(=O)n1-c1ccccc1` (stereo not drawn): 28% and 35%.
As for `CC(NC(=O)c1ccc2occc2c1)c1cc2cccc(Cl)c2c(=O)n1-c1ccccc1` (stereo not drawn), the inhibition is 8% in data set [1] and 11% in data set [2].
In the case of `COc1ccc(C#Cc2cccc3cc(C(C)NC(=O)c4c(N)nn5cccnc45)n(-c4ccccc4)c(=O)c23)cc1` (stereo not drawn), the inhibition in [1] stood at 19%; in [2] it was 31%.
In the case of `CC(NC(=O)c1c(N)nn2cccnc12)c1cc2cccc(C#Cc3ccc(N(C)C)cc3)c2c(=O)n1-c1ccccc1` (stereo not drawn), the inhibition in [1] came to 18%; in [2], 28%.
`CC(Nc1ncnc2[nH]cnc12)c1cc2cccc(C#Cc3ccc(C(F)(F)F)cc3)c2c(=O)n1-c1ccccc1` (stereo not drawn): the inhibition in [1] is 14%; in data set [2] (filed as antagonist), 44%.
Consider `CC(NC(=O)c1cncc(N2CCOCC2)n1)c1cc2cccc(Cl)c2c(=O)n1-c1ccccc1` (stereo not drawn), for which the values for the inhibition in data set [1] and in data set [2] were 14% and 13%, respectively.
For `CC(NC(=O)c1c(N)nn2cccnc12)c1cc2cccc(C#Cc3ccc(C(F)(F)F)cc3)c2c(=O)n1-c1ccccc1` (stereo not drawn), the values for the inhibition in data set [1] and in data set [2] were 17% and 37%, respectively.
On the same counts, the results for `CCCCC#Cc1cccc2cc(C(C)Nc3ncnc4[nH]cnc34)n(-c3ccccc3)c(=O)c12` (stereo not drawn) are 21% and 33%.
Take `C[C@H](Nc1ncnc2[nH]cnc12)c1cc2cccc(Cl)c2c(=O)n1-c1ccccc1` [DUVELISIB]: the IC50 at 24 h in data set [3] is greater than 100 µM.
As to `CC(NC(=O)c1c(N)nn2cccnc12)c1cc2cccc(C#Cc3ccccc3)c2c(=O)n1-c1ccccc1` (stereo not drawn), the inhibition was found to be 25% in data set [1] and 27% in data set [2].
In the case of `CC(Nc1ncnc2[nH]cnc12)c1cc2cccc(C#Cc3ccc(N(C)C)cc3)c2c(=O)n1-c1ccccc1` (stereo not drawn), the inhibition in data set [1] was 14%; in data set [2] (filed as antagonist) it was 46%.
